Laboratory results reported in patent US10829796B2, “Bacteria identification and antimicrobial susceptibility test” (priority 2015, dated 2020).

Test system: bacteria in clinical bovine mastitis milk samples
Test: Combined bacteria identification and antimicrobial susceptibility test (colour of wells, MIC) on clinical bovine mastitis milk samples
Assay type: cell-based
Protocol: Clinical bovine mastitis milk samples were collected by a vet clinic in South Island, New Zealand. Samples were stored in the freezer for several months and shipped frozen to the testing facility. In this Example, the term “clinical” means that dairy cows had clinical symptoms of an udder infection e.g. cow behaved unusual, milk clots, swollen udder among other typical symptoms. Testing was executed in microwell plate comprising of 24 wells (3×8 wells).
In addition, 20 ul of clinical mastitis sample was added to each well with a laboratory pipette.
(§1) Abbreviations • 1. 80 ul GC+10 ul Tell: 80 ul Giolitti Cantoni base broth+10 ul Tellurite solution (1%); • 2. 80 ul TSB/Esc/Fer Cit: 80 ul Tryptic soy broth containing 0.25% Esculin and 0.125% Ammonium Ferric Citrate; • 3. 80 ul TSB/Esc/Fer Cit+10 ul Genta: 80 ul Tryptic soy broth containing 0.25% Esculin and 0.125% Ammonium Ferric Citrate+10 ul of Gentamycin solution 10 mg/ml; • 4. 80 ul McC/PR25: 80 ul MacConkey broth (single strength) containing 0.0125% phenol red; and • 5. 80 ul TSB/PR25: 80 ul Tryptic soy broth containing 0.0125% phenol red. Bacteria Identification
Columns A to C and rows 1 and 2 were used for bacteria identification. A1: coagulase positive Staph; A2: Staphylococci; B1: Strep group D; B2: Strep group D; C1: general enrichment media (gram+ and gram-bacteria); C2: coliform bacteria.
Column A3 to A8: serial dilution of benzyl penicillin as potassium. Column B3 to B8: serial dilution of ceftiofur as hydrochloride. Column C3 to C8: serial dilution of cloxacillin as sodium. Antibiotic concentrations are listed as free form ranging between 4 ug/ml to 0.05 ug/ml.
Minimum inhibitory substance concentration (MIC) is here defined as the concentration if a colour change occurs between two wells (one well remains red with drug concentration 1, the other one yellow with drug concentration 2, whereas drug concentration 1 is larger than drug concentration 2) then the MIC is the value of drug concentration 1.
Table 21 indicates the microwell plate configuration #1; Drugs: Benzylpenicillin as potassium; Cloxacillin as sodium; Ceftiofur as hydrochloride; Drug concentration in each well (A3 to C8) is based on 80 μl composition+10 μl drug solution+20 μl clinical mastitis milk sample and equivalent to listed drug concentration in μg/ml; 20 ul of clinical bovine mastitis milk sample was added to each well (A1 to C8).
In addition, each well received one drop of clinical sample from a transfer pipette which was on average about 35 mg. This was determined through weighing the well plate prior and after the addition of clinical mastitis samples. This weight was then divided by 24.
as §1, with “•” for “Abbreviations •”, “red.” for “red. Bacteria Identification”
Columns A to C and rows 1 and 2 were used for bacteria identification. A1: coagulase positive Staph; A2: Staphylococci; B1: Strep Group D; B2: -; C1: general enrichment media (gram+ and gram-); C2: coliform bacteria.
Column A3 to A8: serial dilution of benzyl penicillin as potassium. Drug concentrations given as free form ranging between 4 ug/ml to 0.05 ug/ml. Column B3 to B8: serial dilution of ceftiofur as hydrochloride. Drug concentrations given as free form ranging between 4 ug/ml to 0.05 ug/ml. Column C3 to C8: serial dilution of cloxacillin as sodium. Drug concentrations given as free form ranging between 4 ug/ml to 0.05 ug/ml.

CO/N=C(\C(=O)N[C@@H]1C(=O)N2C(C(=O)O)=C(CSC(=O)c3ccco3)CS[C@H]12)c1csc(N)n1 [ceftiofur]
Colour of media in each well (ID 1, T = 22 h, 37° C., plate configuration #1, drug 0.05 μg/ml): yellow | Colour of media in each well (ID 1, T = 22 h, 37° C., plate configuration #1, drug 0.1 μg/ml): yellow | Colour of media in each well (ID 1, T = 22 h, 37° C., plate configuration #1, drug 0.5 μg/ml): red | Colour of media in each well (ID 1, T = 22 h, 37° C., plate configuration #1, drug 1 μg/ml): red | Colour of media in each well (ID 1, T = 22 h, 37° C., plate configuration #1, drug 2 μg/ml): red | Colour of media in each well (ID 1, T = 22 h, 37° C., plate configuration #1, drug 4 μg/ml): red | Colour of media in each well (ID 2, T = 48 h, 37° C., plate configuration #1, drug 0.05 μg/ml): yellow | Colour of media in each well (ID 2, T = 48 h, 37° C., plate configuration #1, drug 0.1 μg/ml): yellow | Colour of media in each well (ID 2, T = 48 h, 37° C., plate configuration #1, drug 0.5 μg/ml): yellow | Colour of media in each well (ID 2, T = 48 h, 37° C., plate configuration #1, drug 1 μg/ml): red | Colour of media in each well (ID 2, T = 48 h, 37° C., plate configuration #1, drug 2 μg/ml): red | Colour of media in each well (ID 2, T = 48 h, 37° C., plate configuration #1, drug 4 μg/ml): red | Colour of media in each well (ID 3, T = 22 h, 37° C., plate configuration #1, drug 0.05 μg/ml): red | Colour of media in each well (ID 3, T = 22 h, 37° C., plate configuration #1, drug 0.1 μg/ml): yellow | Colour of media in each well (ID 3, T = 22 h, 37° C., plate configuration #1, drug 0.5 μg/ml): yellow | Colour of media in each well (ID 3, T = 22 h, 37° C., plate configuration #1, drug 1 μg/ml): red | Colour of media in each well (ID 3, T = 22 h, 37° C., plate configuration #1, drug 2 μg/ml): red | Colour of media in each well (ID 3, T = 22 h, 37° C., plate configuration #1, drug 4 μg/ml): red | Colour of media in each well (ID 3, T = 23 h, 37° C., Table 34, drug 0.05 μg/ml): red | Colour of media in each well (ID 3, T = 23 h, 37° C., Table 34, drug 0.1 μg/ml): yellow | Colour of media in each well (ID 3, T = 23 h, 37° C., Table 34, drug 0.5 μg/ml): yellow | Colour of media in each well (ID 3, T = 23 h, 37° C., Table 34, drug 1 μg/ml): red | Colour of media in each well (ID 3, T = 23 h, 37° C., Table 34, drug 2 μg/ml): red | Colour of media in each well (ID 3, T = 23 h, 37° C., Table 34, drug 4 μg/ml): red | Colour of media in each well (ID 3, T~7 h, 37° C., Table 34, drug 0.05 μg/ml): red | Colour of media in each well (ID 3, T~7 h, 37° C., Table 34, drug 0.1 μg/ml): red | Colour of media in each well (ID 3, T~7 h, 37° C., Table 34, drug 0.5 μg/ml): red | Colour of media in each well (ID 3, T~7 h, 37° C., Table 34, drug 1 μg/ml): red | Colour of media in each well (ID 3, T~7 h, 37° C., Table 34, drug 2 μg/ml): red | Colour of media in each well (ID 3, T~7 h, 37° C., Table 34, drug 4 μg/ml): red | Colour of media in each well (ID 3, T~11 h, 37° C., Table 34, drug 0.05 μg/ml): red | Colour of media in each well (ID 3, T~11 h, 37° C., Table 34, drug 0.1 μg/ml): red | Colour of media in each well (ID 3, T~11 h, 37° C., Table 34, drug 0.5 μg/ml): red | Colour of media in each well (ID 3, T~11 h, 37° C., Table 34, drug 1 μg/ml): red | Colour of media in each well (ID 3, T~11 h, 37° C., Table 34, drug 2 μg/ml): red | Colour of media in each well (ID 3, T~11 h, 37° C., Table 34, drug 4 μg/ml): red | Colour of media in each well (ID 4, T = 22 h, 37° C., plate configuration #1, drug 0.05 μg/ml): yellow | Colour of media in each well (ID 4, T = 22 h, 37° C., plate configuration #1, drug 0.1 μg/ml): yellow | Colour of media in each well (ID 4, T = 22 h, 37° C., plate configuration #1, drug 0.5 μg/ml): orange | Colour of media in each well (ID 4, T = 22 h, 37° C., plate configuration #1, drug 1 μg/ml): red | Colour of media in each well (ID 4, T = 22 h, 37° C., plate configuration #1, drug 2 μg/ml): red | Colour of media in each well (ID 4, T = 22 h, 37° C., plate configuration #1, drug 4 μg/ml): red | Colour of media in each well (ID 5, T = 23 h, 37° C., plate configuration #2, drug 0.05 μg/ml): yellow | Colour of media in each well (ID 5, T = 23 h, 37° C., plate configuration #2, drug 0.1 μg/ml): yellow | Colour of media in each well (ID 5, T = 23 h, 37° C., plate configuration #2, drug 0.5 μg/ml): red | Colour of media in each well (ID 5, T = 23 h, 37° C., plate configuration #2, drug 1 μg/ml): red | Colour of media in each well (ID 5, T = 23 h, 37° C., plate configuration #2, drug 2 μg/ml): red | Colour of media in each well (ID 5, T = 23 h, 37° C., plate configuration #2, drug 4 μg/ml): red | Colour of media in each well (ID 5 to 8, T = 0 h (prior incubation, reference), plate configuration #2, drug 0.05 μg/ml): red | Colour of media in each well (ID 5 to 8, T = 0 h (prior incubation, reference), plate configuration #2, drug 0.1 μg/ml): red | Colour of media in each well (ID 5 to 8, T = 0 h (prior incubation, reference), plate configuration #2, drug 0.5 μg/ml): red | Colour of media in each well (ID 5 to 8, T = 0 h (prior incubation, reference), plate configuration #2, drug 1 μg/ml): red
